Reference: ChEMBL document CHEMBL3886457, “Ethynyl derivatives” (2016)

Target: Metabotropic glutamate receptor 5 (Homo sapiens, UniProt P41594)
Assay: Binding Assay: For binding experiments, cDNA encoding human mGlu 5a receptor was transiently transfected into EBNA cells using a procedure described by Schlaeger and Christensen [Cytotechnology 15:1-13 (1998)]. Cell membrane homogenates were stored at -80° C. until the day of assay where upon they were thawed and resuspended and polytronised in 15 mM Tris-HCl, 120 mM NaCl, 100 mM KCl, 25 mM CaCl2, 25 mM MgCl2 binding buffer at pH 7.4 to a final assay concentration of 20 ug protein/well.Saturation isotherms were determined by addition of twelve [3H]MPEP concentrations (0.04-100 nM) to these membranes (in a total volume of 200 ul) for 1 h at 4° C. Competition experiments were performed with a fixed concentration of [3H]MPEP (2 nM) and IC50 values of test compounds evaluated using 11 concentrations (0.3-10,000 nM). Incubations were performed for 1 h at 4° C.At the end of the incubation, membranes were filtered onto unifilter (96-well white microplate with bonded GF/C filter preincubated 1 h in 0.1% PEI in wash buffer, Packard BioScience, Meriden, Conn.) with a Filtermate 96 harvester (Packard BioScience) and washed 3 times with cold 50 mM Tris-HCl, pH 7.4 buffer. Nonspecific binding was measured in the presence of 10 uM MPEP. […]

Metabotropic glutamate receptor 5, sequence (P41594 whole entry): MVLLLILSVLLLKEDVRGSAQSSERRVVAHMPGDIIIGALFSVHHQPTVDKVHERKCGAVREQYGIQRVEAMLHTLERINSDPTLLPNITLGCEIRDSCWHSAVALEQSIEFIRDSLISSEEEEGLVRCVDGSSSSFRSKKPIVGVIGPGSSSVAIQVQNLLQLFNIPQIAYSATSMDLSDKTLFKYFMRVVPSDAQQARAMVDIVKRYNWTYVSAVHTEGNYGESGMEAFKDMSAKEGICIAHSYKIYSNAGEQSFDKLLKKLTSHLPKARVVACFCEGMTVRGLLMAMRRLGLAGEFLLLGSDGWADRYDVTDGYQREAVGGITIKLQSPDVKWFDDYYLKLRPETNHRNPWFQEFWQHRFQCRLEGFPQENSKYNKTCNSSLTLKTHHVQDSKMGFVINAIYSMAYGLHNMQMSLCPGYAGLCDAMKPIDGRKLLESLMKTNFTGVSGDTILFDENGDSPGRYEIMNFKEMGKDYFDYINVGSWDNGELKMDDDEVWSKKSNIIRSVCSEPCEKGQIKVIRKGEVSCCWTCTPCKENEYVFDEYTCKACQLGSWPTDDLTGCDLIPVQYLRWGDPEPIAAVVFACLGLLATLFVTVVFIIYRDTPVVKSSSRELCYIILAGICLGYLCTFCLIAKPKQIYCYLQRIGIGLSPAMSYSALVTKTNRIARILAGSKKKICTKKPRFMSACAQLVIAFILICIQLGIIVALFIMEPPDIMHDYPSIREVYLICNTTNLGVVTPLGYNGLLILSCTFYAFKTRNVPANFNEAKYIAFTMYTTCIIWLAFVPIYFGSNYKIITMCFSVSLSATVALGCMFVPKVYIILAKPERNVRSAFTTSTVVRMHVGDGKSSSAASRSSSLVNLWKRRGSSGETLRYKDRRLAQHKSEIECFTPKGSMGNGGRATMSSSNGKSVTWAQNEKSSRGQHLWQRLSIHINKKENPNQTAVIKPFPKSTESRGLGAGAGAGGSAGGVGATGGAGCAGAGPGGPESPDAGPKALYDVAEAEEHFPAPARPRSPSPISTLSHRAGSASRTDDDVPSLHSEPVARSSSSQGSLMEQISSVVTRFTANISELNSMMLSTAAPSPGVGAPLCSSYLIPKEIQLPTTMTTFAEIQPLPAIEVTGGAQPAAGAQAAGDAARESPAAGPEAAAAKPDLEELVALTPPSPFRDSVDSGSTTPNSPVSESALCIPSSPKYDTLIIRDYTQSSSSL

**Q.** `O=C(c1ccc(C#Cc2cccc(Cl)c2)cn1)N1CCOCC1` was tested. Which Ki did it give?
**A.** 0.019 µM
